Data as given in ChEMBL document CHEMBL5321272 (J Med Chem, 2023).
Calls of active or inactive are those of the source. The rule behind the calls is not given here.

Key:
[1] = Selectivity ratio of IC50 for ASK1 (unknown origin) to IC50 for FLT3-ITD mutant (unknown origin)
[2] = Acute toxicity in ICR mouse assessed as morphological changes in kidney at 300 mg/kg, ig and measured for 7 days by Hematoxylin-Eosin staining based analysis; format: organism-based; details: in vivo, po, 168 h, time 7 day
[3] = target: hERG (KCNH2) (Homo sapiens, UniProt Q12809); experiment: Inhibition of hERG expressed in HEK293 cells at 20 uM by whole cell patch clamp analysis; format: toxicity, cell-based; details: HEK293 cells expressing hERG
Chain of hERG (KCNH2) (Q12809 whole entry): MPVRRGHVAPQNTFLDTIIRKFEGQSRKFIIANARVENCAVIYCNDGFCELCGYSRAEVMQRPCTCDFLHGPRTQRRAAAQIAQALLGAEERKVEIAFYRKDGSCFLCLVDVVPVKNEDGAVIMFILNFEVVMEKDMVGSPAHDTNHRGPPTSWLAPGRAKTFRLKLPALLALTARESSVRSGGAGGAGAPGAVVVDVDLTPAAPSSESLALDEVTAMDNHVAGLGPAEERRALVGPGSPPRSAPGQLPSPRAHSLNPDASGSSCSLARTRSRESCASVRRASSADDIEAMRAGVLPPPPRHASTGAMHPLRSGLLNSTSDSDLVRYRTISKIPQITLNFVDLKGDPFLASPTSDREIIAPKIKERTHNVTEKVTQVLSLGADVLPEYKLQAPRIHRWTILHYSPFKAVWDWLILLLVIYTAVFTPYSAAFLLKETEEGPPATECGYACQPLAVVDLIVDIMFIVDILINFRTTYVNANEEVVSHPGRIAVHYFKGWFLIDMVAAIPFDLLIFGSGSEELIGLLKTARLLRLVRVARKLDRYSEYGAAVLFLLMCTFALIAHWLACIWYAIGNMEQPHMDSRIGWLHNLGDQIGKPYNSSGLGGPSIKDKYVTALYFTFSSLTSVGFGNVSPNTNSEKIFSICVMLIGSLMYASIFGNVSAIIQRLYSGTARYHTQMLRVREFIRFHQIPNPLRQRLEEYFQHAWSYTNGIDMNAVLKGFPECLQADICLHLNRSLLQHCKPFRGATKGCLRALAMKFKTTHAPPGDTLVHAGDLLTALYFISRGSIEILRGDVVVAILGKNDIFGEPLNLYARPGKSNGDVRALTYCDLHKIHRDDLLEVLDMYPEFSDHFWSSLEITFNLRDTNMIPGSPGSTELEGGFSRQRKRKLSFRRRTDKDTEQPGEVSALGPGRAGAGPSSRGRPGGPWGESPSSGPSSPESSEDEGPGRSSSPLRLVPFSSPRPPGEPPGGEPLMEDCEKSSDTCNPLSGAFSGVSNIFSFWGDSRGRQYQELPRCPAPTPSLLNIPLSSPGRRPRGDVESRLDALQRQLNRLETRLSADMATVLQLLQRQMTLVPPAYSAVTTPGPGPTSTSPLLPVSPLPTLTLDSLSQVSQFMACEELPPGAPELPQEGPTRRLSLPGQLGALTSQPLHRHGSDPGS

[4] = Half life in ICR mouse at 10 mg/kg, po; format: ADME, organism-based; details: in vivo
[5] = Selectivity ratio of IC50 for CDK1 (unknown origin) to IC50 for FLT3-ITD mutant (unknown origin)
[6] = Cmax in ICR mouse at 10 mg/kg, po; format: ADME, organism-based; design: dose 10 mg/kg, route po; details: in vivo
[7] = test system: MOLM-13; experiment: Antiproliferative activity against human MOLM-13 cells assessed as reduction in cell viability incubated for 72 hrs by CellTiter 96 Aqueous One Solution Cell Proliferation Assay; format: functional, cell-based
[8] = target: Ribosomal protein S6 kinase beta-1 (Homo sapiens, UniProt P23443); experiment: Inhibition of P70S6K (unknown origin) by HTRF assay
Chain of Ribosomal protein S6 kinase beta-1 (P23443 whole entry): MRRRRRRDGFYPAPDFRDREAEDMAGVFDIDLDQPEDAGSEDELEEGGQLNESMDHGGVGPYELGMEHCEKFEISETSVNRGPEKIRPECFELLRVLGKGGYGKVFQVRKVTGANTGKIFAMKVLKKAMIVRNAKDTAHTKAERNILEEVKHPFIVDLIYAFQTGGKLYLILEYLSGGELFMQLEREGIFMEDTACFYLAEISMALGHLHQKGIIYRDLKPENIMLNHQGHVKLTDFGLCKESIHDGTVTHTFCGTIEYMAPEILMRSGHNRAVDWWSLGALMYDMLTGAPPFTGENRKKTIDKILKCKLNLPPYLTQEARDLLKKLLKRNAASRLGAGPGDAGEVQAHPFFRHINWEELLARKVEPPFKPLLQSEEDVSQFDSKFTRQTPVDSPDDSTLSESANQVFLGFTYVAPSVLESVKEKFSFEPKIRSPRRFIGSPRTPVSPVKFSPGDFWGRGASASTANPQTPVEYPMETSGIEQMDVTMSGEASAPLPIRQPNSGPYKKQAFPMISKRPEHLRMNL

[9] = Selectivity ratio of IC50 for BMX (unknown origin) to IC50 for FLT3-ITD mutant (unknown origin)
[10] = Selectivity ratio of IC50 for CDK2 (unknown origin) to IC50 for FLT3-ITD mutant (unknown origin)
[11] = AUC (last) in ICR mouse at 10 mg/kg, po; format: ADME, organism-based; design: dose 10 mg/kg, route po; details: in vivo
[12] = Selectivity ratio of IC50 for TEC (unknown origin) to IC50 for FLT3-ITD mutant (unknown origin)
[13] = target: Receptor-type tyrosine-protein kinase FLT3 (Homo sapiens) (UniProt P36888); experiment: Inhibition of FLT3 in human MV4-11 cells assessed as inhibition of FLT3 phosphorylation measured after 90 mins by western blot analysis; format: cell-based; details: dose 20-100 nM
Chain of Receptor-type tyrosine-protein kinase FLT3 (Homo sapiens) (P36888 whole entry): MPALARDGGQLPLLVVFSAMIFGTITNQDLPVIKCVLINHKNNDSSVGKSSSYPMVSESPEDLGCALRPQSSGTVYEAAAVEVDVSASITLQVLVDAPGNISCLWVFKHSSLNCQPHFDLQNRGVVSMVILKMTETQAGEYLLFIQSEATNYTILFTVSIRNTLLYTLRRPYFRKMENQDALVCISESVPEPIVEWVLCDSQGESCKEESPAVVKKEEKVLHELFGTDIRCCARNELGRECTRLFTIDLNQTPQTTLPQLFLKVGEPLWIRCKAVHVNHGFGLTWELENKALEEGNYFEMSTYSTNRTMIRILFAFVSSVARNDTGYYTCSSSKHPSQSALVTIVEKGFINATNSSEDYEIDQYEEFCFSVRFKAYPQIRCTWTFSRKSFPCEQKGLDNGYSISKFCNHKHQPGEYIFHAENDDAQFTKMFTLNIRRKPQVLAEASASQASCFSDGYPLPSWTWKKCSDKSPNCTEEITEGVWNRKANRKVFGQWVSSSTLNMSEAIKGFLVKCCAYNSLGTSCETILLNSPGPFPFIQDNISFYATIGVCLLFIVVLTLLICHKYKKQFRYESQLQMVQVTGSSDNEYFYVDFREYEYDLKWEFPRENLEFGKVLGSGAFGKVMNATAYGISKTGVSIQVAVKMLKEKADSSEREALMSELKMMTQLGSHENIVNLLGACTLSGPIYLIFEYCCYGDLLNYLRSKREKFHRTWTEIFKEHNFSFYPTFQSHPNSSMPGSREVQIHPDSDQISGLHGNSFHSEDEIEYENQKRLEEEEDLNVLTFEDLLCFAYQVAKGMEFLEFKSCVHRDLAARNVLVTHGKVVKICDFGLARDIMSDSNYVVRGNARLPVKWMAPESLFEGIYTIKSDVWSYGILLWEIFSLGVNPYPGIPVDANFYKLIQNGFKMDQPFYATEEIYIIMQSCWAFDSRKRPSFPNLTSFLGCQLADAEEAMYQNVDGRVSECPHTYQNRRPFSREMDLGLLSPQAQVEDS

[14] = Selectivity ratio of IC50 for TAK1 (unknown origin) to IC50 for FLT3-ITD mutant (unknown origin)

SMILES: CC(C)(O)CC(=O)N1CCc2cc(Nc3ncc(C(F)(F)F)c(N[C@H]4CC[C@@H](N)CC4)n3)ccc2C1
- Ratio IC50 [1]: > 100
- Activity [2]: Non-Toxic
- inhibition at 20 µM [3]: 2.37%
- half-life [4]: 5.6 h
- Ratio IC50 [5]: > 100
- Cmax [6]: 571 ng/mL
- Activity [7]: Active
- IC50 [8]: 91.6 nM
- Ratio IC50 [9]: > 100
- Ratio IC50 [10]: > 100
- AUC(0-t) [11]: 1570 ng·h/mL
- Ratio IC50 [12]: > 100
- inhibition [13]: Dose-Dependent Effect
- Ratio IC50 [14]: > 100
